Biological target: T1, human SLC6A19 and TMEM27 (Homo sapiens, UniProt Q695T7)
T1 construct: expressed in transfected cells
T1 sequence (Q695T7 1-634): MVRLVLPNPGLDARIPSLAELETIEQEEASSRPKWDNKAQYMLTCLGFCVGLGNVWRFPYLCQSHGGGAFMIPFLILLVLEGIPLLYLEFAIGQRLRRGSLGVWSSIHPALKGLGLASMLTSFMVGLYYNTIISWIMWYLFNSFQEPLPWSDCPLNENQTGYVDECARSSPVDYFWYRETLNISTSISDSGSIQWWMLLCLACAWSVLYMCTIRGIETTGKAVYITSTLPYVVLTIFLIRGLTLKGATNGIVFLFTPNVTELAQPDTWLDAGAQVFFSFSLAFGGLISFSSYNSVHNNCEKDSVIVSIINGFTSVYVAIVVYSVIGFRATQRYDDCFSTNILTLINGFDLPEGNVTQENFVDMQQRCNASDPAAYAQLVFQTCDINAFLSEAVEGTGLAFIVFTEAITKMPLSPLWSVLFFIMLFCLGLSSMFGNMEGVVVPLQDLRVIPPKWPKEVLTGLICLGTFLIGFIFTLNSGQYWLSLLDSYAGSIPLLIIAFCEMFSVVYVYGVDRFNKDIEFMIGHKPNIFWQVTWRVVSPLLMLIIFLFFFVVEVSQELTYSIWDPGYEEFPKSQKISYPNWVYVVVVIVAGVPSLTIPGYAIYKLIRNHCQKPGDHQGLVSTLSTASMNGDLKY
T1 sequence (Q9HBJ8 15-222 partner): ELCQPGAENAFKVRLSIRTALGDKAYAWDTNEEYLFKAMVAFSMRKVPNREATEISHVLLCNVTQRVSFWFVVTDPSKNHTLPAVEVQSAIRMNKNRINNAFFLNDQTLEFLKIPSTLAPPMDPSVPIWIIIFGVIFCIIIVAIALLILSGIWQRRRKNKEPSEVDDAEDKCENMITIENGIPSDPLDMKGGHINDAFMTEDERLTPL
Assay: 13C6,15N-isoleucine uptake in CHO cells with doxycycline-inducible expression of human SLC6A19 and TMEM27, RapidFire mass spectrometry (Example B-2)
Format: cell-based
Settings: read-out: SLC6A19_RapidFire Uptake Assay IC50
Method: Assay ready vials of CHO cells with doxycycline inducible expression of human SLC6A19 and TMEM27 were thawed, plated in T175 flasks containing DMEM/F12 media, 10% FBS, 1% Penicillin-Streptomycin, 1× UltraGlutamate, 1 mM Sodium Pyruvate, Sodium Bicarbonate (7.5 mL of 7.5% solution in 500 mL media final), 5 μg/mL Blasticidin, 150 μg/mL Hygromycin B Gold, and 500 μg/mL G418, and incubated (humidified, 37° C. with 5% CO2) for 48 hours. Media was then removed, flasks were washed with 20 mL of DPBS, and 5 mL of TrypLE™ Express was added to each flask to initiate cell dissociation. After 5 minutes, 10 mL of cell culture media was added to each flask and mixed. The cell suspension was collected and centrifuged for 5 minutes at 200×g. The supernatant was removed, and the pellet was resuspended in 10 mL of cell culture media. Resuspended cells were counted using a Vi-Cell. 30 μL/well (20,000 cells/well) of cell suspension was added to Poly-D-Lysine 384-well black/clear plates. Plates were incubated (humidified, 37° C. with 5% CO2) for 24 hours. To induce expression of human SLC6A19 and TMEM27, 10 μL of assay culture media containing 4 μg/mL doxycycline was added to each well. Assay plates were then incubated (humidified, 37° C. with 5% CO2) overnight. After incubation, the media was removed, and wells were washed 3 times with 40 μL of warmed DPBS. Next, 10 μL of warmed assay buffer (137 mM NaCl, 5 mM KCl, 1 mM CaCl2), 1 mM MgCl2, 10 mM HEPES, 10 mM glucose, pH 7.2) was added to each well. 10 μL/well of test compound or positive control compound to define 0% activity (i.e., 100% inhibition), was then added into each well. All compounds were plated in a duplicate 10-point dilution series that consisted of 2-fold dilutions. The plates were incubated (humidified, 37° C. with 5% C2) with compound for 20 minutes. Afterwards, 20 μL/well of 2 mM 13C6,15N-1-isoleucine was added to each well and plates were incubated again (humidified, 37° C. with 5% C02) for another 20 minutes. Assay buffer was then removed, and plates were washed. 70 μL/well of stop solution (75% acetonitrile, 25% HPLC grade water, 250 nM 1-leucine-1-13C (RapidFire standard)) was added to each well. The plates were sealed and then placed in a −20° C. freezer for 20 minutes. The plates were thawed at room temperature for 20 minutes and then centrifuge for 20 minutes at 3000 rpm. Using an ABSciex API4000 mass spectrometer, processed samples were loaded onto the graphitic carbon SPE-column. The time for aspiration, load/wash, elution and re-equilibration time was 600, 1500, 3000 and 500 milliseconds, respectively. Peak areas were calculated using RapidFire Integrator software.

| Structure (SMILES) | IC50 [µM] |
| --- | --- |
| CC1(C(=O)NCc2cc3ccc([C@@H]4C[C@H]4c4ccccc4)cc3[nH]2)CC1 (racemic) [Compound 154, trans-1-methyl-N-((6-(2-phenylcyclopropyl)-1H-indol-2-yl)methyl)cyclopropane-1-carboxamide] | 1.36 |
| CCC(=O)NCc1cc2ccc(NCc3ccccc3)cc2[nH]1 [Compound 1, N-((6-(benzylamino)-1H-indol-2-yl)methyl)propionamide] | 5.54 |
| CN(Cc1ccccc1)c1ccc2cc(CNC(=O)C3(C)CC3)[nH]c2c1 [Compound 2, N-((6-(benzyl(methyl)amino)-1H-indol-2-yl)methyl)-1-methylcyclopropane-1-carboxamide] | 0.992 |
| CC1(C(=O)NCc2cc3ccc(NCc4ccccc4)cc3[nH]2)CC1 [Compound 3, N-((6-(benzylamino)-1H-indol-2-yl)methyl)-1-methylcyclopropanecarboxamide] | 0.504 |
| CC1(C(=O)NCc2cc3ccc(NCc4ccccn4)cc3[nH]2)CC1 [Compound 4, 1-methyl-N-((6-((pyridin-2-ylmethyl)amino)-1H-indol-2-yl)methyl)cyclopropane-1-carboxamide] | 1.83 |
| CC1(C(=O)NCc2cc3ccc(OCc4ccccc4)cc3[nH]2)CC1 [Compound 5, N-((6-(benzyloxy)-1H-indol-2-yl)methyl)-1-methylcyclopropanecarboxamide] | 0.053 |
| CC1(C(=O)NCc2cc3cc(F)c(OCc4cocn4)cc3[nH]2)CC1 [Compound 7, N-((5-fluoro-6-(oxazol-4-ylmethoxy)-1H-indol-2-yl)methyl)-1-methylcyclopropane-1-carboxamide] | 0.225 |
| CC1(C(=O)NCc2cc3cc(F)c(OCc4cncs4)cc3[nH]2)CC1 [Compound 9, N-((5-fluoro-6-(thiazol-5-ylmethoxy)-1H-indol-2-yl)methyl)-1-methylcyclopropane-1-carboxamide] | 0.271 |
| Cc1cc2cc(CNC(=O)C3(C)CC3)[nH]c2cc1OCc1ccon1 [Compound 10, N-((6-(isoxazol-3-ylmethoxy)-5-methyl-1H-indol-2-yl)methyl)-1-methylcyclopropane-1-carboxamide] | 0.13 |
| CC1(C(=O)NCc2cc3ccc(OCc4ccon4)cc3[nH]2)CC1 [Compound 20, N-((6-(isoxazol-3-ylmethoxy)-1H-indol-2-yl)methyl)-1-methylcyclopropane-1-carboxamide] | 0.168 |
| Cc1ccc(COc2cc3[nH]c(CNC(=O)C4(C)CC4)cc3cc2Cl)cn1 [Compound 37, N-((5-chloro-6-((6-methylpyridin-3-yl)methoxy)-1H-indol-2-yl)methyl)-1-methylcyclopropane-1-carboxamide] | 0.625 |
| CC1(C(=O)NCc2cc3cc(Cl)c(OCc4ccsn4)cc3[nH]2)CC1 [Compound 38, N-((5-chloro-6-(isothiazol-3-ylmethoxy)-1H-indol-2-yl)methyl)-1-methylcyclopropane-1-carboxamide] | 0.044 |
| CC1(C(=O)NCc2cc3cc(Cl)c(OCc4cccnc4)cc3[nH]2)CC1 [Compound 39, N-((5-chloro-6-(pyridin-3-ylmethoxy)-1H-indol-2-yl)methyl)-1-methylcyclopropane-1-carboxamide] | 0.37 |
| CC1(C(=O)NCc2cc3cc(Cl)c(OCc4nccs4)cc3[nH]2)CC1 [Compound 40, N-((5-chloro-6-(thiazol-2-ylmethoxy)-1H-indol-2-yl)methyl)-1-methylcyclopropane-1-carboxamide] | 0.064 |
| Cc1cccc(COc2cc3[nH]c(CNC(=O)C4(C)CC4)cc3cc2Cl)n1 [Compound 42, N-((5-chloro-6-((6-methylpyridin-2-yl)methoxy)-1H-indol-2-yl)methyl)-1-methylcyclopropane-1-carboxamide] | 1.62 |
| CC1(C(=O)NCc2cc3ccc(OCc4nccs4)cc3[nH]2)CC1 [Compound 43, 1-methyl-N-((6-(thiazol-2-ylmethoxy)-1H-indol-2-yl)methyl)cyclopropane-1-carboxamide] | 0.192 |
| CC1(C(=O)NCc2cc3ccc(OCc4ccc(Cl)cc4)cc3[nH]2)CC1 [Compound 44, N-((6-((4-chlorobenzyl)oxy)-1H-indol-2-yl)methyl)-1-methylcyclopropane-1-carboxamide] | 0.838 |
| CCC(=O)NCc1cc2ccc(OCc3cc(C)on3)cc2[nH]1 [Compound 47, N-((6-((5-methylisoxazol-3-yl)methoxy)-1H-indol-2-yl)methyl)propionamide] | 0.698 |
| CC1(C(=O)NCc2cc3ccc(OCc4cncs4)cc3[nH]2)CC1 [Compound 48, 1-methyl-N-((6-(thiazol-5-ylmethoxy)-1H-indol-2-yl)methyl)cyclopropane-1-carboxamide] | 0.493 |
| CC1(C(=O)NCc2cc3ccc(OCc4cocn4)cc3[nH]2)CC1 [Compound 49, 1-methyl-N-((6-(oxazol-4-ylmethoxy)-1H-indol-2-yl)methyl)cyclopropane-1-carboxamide] | 0.412 |
| Cc1cc(COc2ccc3cc(CNC(=O)C4(C)CC4)[nH]c3c2)no1 [Compound 50, 1-methyl-N-((6-((5-methylisoxazol-3-yl)methoxy)-1H-indol-2-yl)methyl)cyclopropane-1-carboxamide] | 0.193 |
| CC1(C(=O)NCc2cc3ccc(OCc4ncccn4)cc3[nH]2)CC1 [Compound 51, 1-methyl-N-((6-(pyrimidin-2-ylmethoxy)-1H-indol-2-yl)methyl)cyclopropane-1-carboxamide] | 4.39 |
| CC1(C(=O)NCc2cc3ccc(OCc4cncnc4)cc3[nH]2)CC1 [Compound 52, 1-methyl-N-((6-(pyrimidin-5-ylmethoxy)-1H-indol-2-yl)methyl)cyclopropane-1-carboxamide] | 2.11 |
| CC1(C(=O)NCc2cc3ccc(OCc4ccncn4)cc3[nH]2)CC1 [Compound 53, 1-methyl-N-((6-(pyrimidin-4-ylmethoxy)-1H-indol-2-yl)methyl)cyclopropane-1-carboxamide] | 4.82 |
| CC1(C(=O)NCc2cc3ccc(OCc4ccccn4)cc3[nH]2)CC1 [Compound 54, 1-methyl-N-((6-(pyridin-2-ylmethoxy)-1H-indol-2-yl)methyl)cyclopropane-1-carboxamide] | 0.155 |
| CC1(C(=O)NCc2cc3ccc(OCc4cccnc4)cc3[nH]2)CC1 [Compound 55, 1-methyl-N-((6-(pyridin-3-ylmethoxy)-1H-indol-2-yl)methyl)cyclopropane-1-carboxamide] | 0.427 |
| CC1(C(=O)NCc2cc3ccc(OCc4ccncc4)cc3[nH]2)CC1 [Compound 56, 1-methyl-N-((6-(pyridin-4-ylmethoxy)-1H-indol-2-yl)methyl)cyclopropane-1-carboxamide] | 1.95 |
| CC1(C(=O)NCc2cc3cc(F)c(OCc4cnco4)cc3[nH]2)CC1 [Compound 57, N-((5-fluoro-6-(oxazol-5-ylmethoxy)-1H-indol-2-yl)methyl)-1-methylcyclopropane-1-carboxamide] | 0.577 |

Reference: patent publication US20240199546A1, “INHIBITORS OF SOLUTE CARRIER FAMILY 6A MEMBER 19 (SLC6A19) AND METHODS OF USE THEREOF” (Maze Therapeutics, Inc., priority 2022, published 2024)
